# Measurements: ChEMBL document CHEMBL5226303, “GPR120/FFAR4 Pharmacology: Focus on Agonists in Type 2 Diabetes Mellitus Drug Discovery” (J Med Chem, 2021)
# Columns and labels:
# [1] = target: T1, Free fatty acid receptor 4 (Homo sapiens, UniProt Q5NUL3); experiment: Agonist activity at human GPR120 expressed in CHO-K1 cells by beta-arrestin assay; type: cell-based
# T1 sequence (Q5NUL3 whole entry): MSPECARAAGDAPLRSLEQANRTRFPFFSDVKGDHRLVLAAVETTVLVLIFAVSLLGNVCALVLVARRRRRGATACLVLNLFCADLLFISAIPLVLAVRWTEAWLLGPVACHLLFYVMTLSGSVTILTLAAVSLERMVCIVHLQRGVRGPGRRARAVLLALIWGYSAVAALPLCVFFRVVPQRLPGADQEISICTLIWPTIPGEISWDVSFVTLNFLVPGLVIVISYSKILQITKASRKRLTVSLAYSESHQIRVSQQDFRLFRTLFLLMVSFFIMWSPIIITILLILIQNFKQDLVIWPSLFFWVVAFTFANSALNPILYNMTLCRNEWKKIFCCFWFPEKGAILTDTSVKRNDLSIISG
# DU-145 = experiment: Antiproliferative activity against LPA-induced human DU-145 cells; type: functional, cell-based
# [2] = Agonist activity at FFA receptor (unknown origin); design: species or system Homo sapiens
# [3] = target: T1, Free fatty acid receptor 4; experiment: Agonist activity at human GPR120 expressed in HEK293 cells assessed as calcium accumulation; type: cell-based
# [4] = target: T1, Free fatty acid receptor 4; experiment: Agonist activity at human GPR120 expressed in HEK293 cells by beta-arrestin assay; type: cell-based
structure (smiles),measurement,setting,value
C#Cc1cc(Oc2cccnc2)cc(N2Cc3ccccc3S2(=O)=O)c1,EC50,[1],0.0052 µM
CC/C=C\C/C=C\C/C=C\C/C=C\C/C=C\C/C=C\CCC(=O)O [DOCONEXENT],IC50,DU-145,0.073 µM
CC(C)=CCC/C(C)=C/CC/C(C)=C/Cc1c(O)cc(C)c(C(=O)O)c1O [GRIFOLIC ACID],IC50,DU-145,5.7 µM
CCCCC/C=C\C/C=C\CCCCCCCC(=O)O [LINOLEIC ACID],pEC50,[2],5.16
OCCCc1c(F)cc(OCc2c(-c3ccc(Cl)cc3)csc2C(F)(F)F)cc1F,EC50,[3],0.165 µM
same,EC50,[4],0.125 µM
